These results are taken from ChEMBL document CHEMBL4699511, “Cedrol, a Sesquiterpene Alcohol, Enhances the Anticancer Efficacy of Temozolomide in Attenuating Drug Resistance via Regulation of the DNA Damage Response and MGMT Expression” (J Nat Prod, 2020).

Active and inactive are the calls of the source. The rule behind the calls is not given here.

Series [1] relates to RG2. Kind of series: Induction of cell cycle arrest in rat RG2 cells assessed as CyclinB1 expression at 112.4 uM after 48 hrs in presence of TMZ by Western blot analysis (reference value: 1). In kind it is functional. For orientation: Immunoblotting shows a protein as a band on a membrane.
The test system of series [2] is DBTRG-05MG. Nature of the series: Induction of apoptosis in human DBTRG-05MG cells assessed as phosphorylated caspace-9 expression at 112.4 uM after 48 hrs by Western blot analysis (reference value: 1). In kind it is functional.
The nature of series [3]: Toxicity in BALB/c mouse xenografted with DBTRG-05MG cells assessed as reduction in body weight at 75 mg/kg, sc for every 2 days for 20 days. In kind it is organism-based. As to conditions: in vivo, 480 h, time 20 day.
Series [4] relates to RG2. Nature of the series: Induction of apoptosis in rat RG2 cells assessed as increase in DNA fragmentation at 112.4 uM after 48 hrs in presence of TMZ by TUNEL assay. In kind it is functional, cell-based.
Series [5] can be described thus: Effect on JNK expression in rat RG2 cells at 112.4uM after 48 hrs by Western blot analysis (reference value: 1). In kind it is functional.
Series [6] is described as follows: Inhibition of TMZ-induced drug resistance in human DBTRG-05MG cells assessed as MDR1 expression at 112.4 uM after 48 hrs by Western blot analysis (reference value: 1.5). It is filed as functional.
Series [7] has as its system RG2. Kind of series: Synergistic cytotoxicity against rat RG2 cells assessed as synergistic effect index at 112.4 uM after 48 hrs in presence of 309 uM TMZ by MTT assay. In kind it is functional. (In general: Tetrazolium dyes change colour on reduction, which living cells bring about.)
Series [8] concerns RG2. Nature of the series: Inhibition of ERK phosphorylation at Tyr204 residues in rat RG2 cells at 112.4uM after 48 hrs by Western blot analysis (reference value: 1). It is filed as cell-based.
The test system of series [9] is RG2. Kind of series: Induction of cell cycle arrest in rat RG2 cells assessed as accumulation at S phase at 112.4 uM after 6 hrs in presence of TMZ by propidium iodide staining based flow cytometric analysis (reference value: 20.15 +/- 2.44%). In kind it is functional. In general terms: Flow cytometry measures light scatter and fluorescence of single cells or particles in a stream.

In series [10] the test system is DBTRG-05MG. Nature of the series: Induction of apoptosis in human DBTRG-05MG cells assessed as Bax expression at 112.4 uM after 48 hrs in presence of TMZ by Western blot analysis (reference value: 1). In kind it is functional.
In series [11] the test system is DBTRG-05MG. Nature of the series: Inhibition of ERK phosphorylation at Tyr204 residues in human DBTRG-05MG cells at 112.4uM after 48 hrs in presence of TMZ by Western blot analysis (reference value: 1). It is filed as cell-based.
In series [12] the test system is RG2. Kind of series: Induction of apoptosis in rat RG2 cells assessed as increase in DNA fragmentation at 112.4 uM after 48 hrs by TUNEL assay. It is filed as functional, cell-based.
For series [13], the system named is DBTRG-05MG. Nature of the series: Induction of cell cycle arrest in human DBTRG-05MG cells assessed as accumulation at S phase at 112.4 uM after 48 hrs by propidium iodide staining based flow cytometric analysis (reference value: 22.76 +/- 1.56%). In kind it is functional.
Series [14] can be described thus: Synergistic cytotoxicity against rat CTX TNA2 cells assessed as combination index at 112.4 uM after 48 hrs in presence of 309 uM TMZ by MTT assay. In kind it is cell-based. As to conditions: ctx tna2, 48 h.
Series [15] is described as follows: Synergistic cytotoxicity against rat CTX TNA2 cells assessed as synergistic effect index at 112.4 uM after 48 hrs in presence of 515.1 uM TMZ by MTT assay. It is filed as cell-based. Conditions: ctx tna2, 48 h.
Series [16] has as its system RG2. Nature of the series: Induction of cell cycle arrest in rat RG2 cells assessed as accumulation at G0/G1 phase at 112.4 uM after 6 hrs by propidium iodide staining based flow cytometric analysis (reference value: 57.81 +/- 1.9%). It is filed as functional.
Series [17] deals with DBTRG-05MG. Nature of the series: Induction of cell cycle arrest in human DBTRG-05MG cells assessed as accumulation at S phase at 112.4 uM after 48 hrs in presence of TMZ by propidium iodide staining based flow cytometric analysis (reference value: 22.76 +/- 1.56%). It is filed as functional.
Series [18] deals with RG2. Nature of the series: Inhibition of TMZ-induced drug resistance in rat RG2 cells assessed as reduction in MGMT protein expression at 112.4 uM after 48 hrs by Immunohistochemistry method. In kind it is functional, cell-based.
Series [19] can be described thus: Synergistic cytotoxicity against rat CTX TNA2 cells assessed as combination index at 89.9 uM after 48 hrs in presence of 206 uM TMZ by MTT assay. It is filed as cell-based. Conditions: ctx tna2, 48 h.
Series [20] in a line: Effect on p38 expression in human DBTRG-05MG cells at 112.4uM after 48 hrs by Western blot analysis (reference value: 1). It is filed as functional.
For series [21], the system named is DBTRG-05MG. Nature of the series: Induction of DNA damage in human DBTRG-05MG cells assessed as Chk2 phosphorylation at Thr68 residues at 112.4 uM after 48 hrs by Western blot analysis (reference value: 1). It is filed as functional.
Series [22] has as its system RG2. Kind of series: Synergistic cytotoxicity against rat RG2 cells assessed as synergistic effect index at 134.9 uM after 48 hrs in presence of 206 uM TMZ by MTT assay. It is filed as functional.
Series [23] has as its system DBTRG-05MG. Kind of series: Induction of cell cycle arrest in human DBTRG-05MG cells assessed as accumulation at G2/M phase at 112.4 uM after 12 hrs by propidium iodide staining based flow cytometric analysis (reference value: 30.08 +/- 0.1%). It is filed as functional.
Series [24] deals with DBTRG-05MG. Nature of the series: Potentiation of TMZ-induced antitumor activity against human DBTRG-05MG cells xenografted in BALB/c nude mouse assessed as reduction in tumour growth at 75 mg/kg, sc co-treated with TMZ for 18 days. Conditions: time 18.0 day. In kind it is functional, organism-based.
A short description of series [25]: Synergistic cytotoxicity against rat CTX TNA2 cells assessed as combination index at 134.9 uM after 48 hrs in presence of 103 uM TMZ by MTT assay. In kind it is cell-based. Conditions: ctx tna2, 48 h.
For series [26], the system named is DBTRG-05MG. Kind of series: Synergistic cytotoxicity against human DBTRG-05MG cells assessed as synergistic effect index at 112.4 uM after 48 hrs in presence of 515.1 uM TMZ by MTT assay. It is filed as functional.
Series [27] relates to DBTRG-05MG. Kind of series: Induction of cell cycle arrest in human DBTRG-05MG cells assessed as CDK4 expression at 112.4 uM after 48 hrs by Western blot analysis (reference value: 1). In kind it is functional.
Series [28] has as its system DBTRG-05MG. Kind of series: Induction of cell cycle arrest in human DBTRG-05MG cells assessed as CyclinA expression at 112.4 uM after 48 hrs by Western blot analysis (reference value: 1). It is filed as functional.
The test system of series [29] is DBTRG-05MG. Kind of series: Synergistic cytotoxicity against human DBTRG-05MG cells assessed as combination index at 89.9 uM after 48 hrs in presence of 309 uM TMZ by MTT assay. In kind it is functional.
In series [30] the test system is DBTRG-05MG. Nature of the series: Induction of apoptosis in human DBTRG-05MG cells assessed as cleaved PARP expression at 206 uM after 48 hrs by Western blot analysis (reference value: 1). In kind it is functional.
For series [31], the system named is RG2. Kind of series: Induction of cell cycle arrest in rat RG2 cells assessed as CyclinB1 expression at 206 uM after 48 hrs by Western blot analysis (reference value: 1). It is filed as functional.
In series [32] the test system is DBTRG-05MG. Nature of the series: Induction of cell cycle arrest in human DBTRG-05MG cells assessed as CyclinA expression at 206 uM after 48 hrs by Western blot analysis (reference value: 1). It is filed as functional.
Series [33] relates to RG2. Kind of series: Induction of cell cycle arrest in rat RG2 cells assessed as CyclinA expression at 206 uM after 48 hrs by Western blot analysis (reference value: 1). It is filed as functional.
The test system of series [34] is DBTRG-05MG. Kind of series: Induction of apoptosis in human DBTRG-05MG cells assessed as increase in apoptotic body formation at 206 uM after 48 hrs by TUNEL assay. In kind it is functional, cell-based.

As for `C[C@@H]1CC[C@H]2C(C)(C)[C@H]3C[C@@]12CC[C@@]3(C)O` [CEDROL], the “fold change (FC)” value in series [1] was 0.7; in series [2], 0.8; in series [5] it was 0.8; in series [6], 0.7; in series [8] it was 0.9; in [10] it was 1.7. Also, the fold change (FC) in series [11] amounted to 0.5; in series [20], 1.1; in series [21] it was 1.9; in [27] it was 1; in series [28], 0.6. Besides, the Activity result in [3] is listed as “Non-Toxic”; in [9], 19.02%; in [13] it was 18.04%; in series [16], 60.95%; in [17] it was 20.58%; in series [23], 31.03%. Also, the outcome in series [4], in series [12] and in series [24] was Active. For the same compound, the Activity_index amounted to 0.85 in series [7], 0.7 in series [15], 0.91 in [22] and 0.85 in series [26]. Besides, the CI turned out to be 1.09 in series [14], 1.13 in series [19], 1.23 in [25] and 0.74 in [29]. The inhibition entry in [18] is “Active”.

For the compound `Cn1nnc2c(C(N)=O)ncn2c1=O` [TEMOZOLOMIDE], the “fold change (FC)” value is listed as 1.4 in [30], 1.8 in [31], 1.9 in series [32] and 1.9 in [33]. For the same compound, the outcome in [34] was Active.
